According to US10519159B2, “Antiviral aliphatic ester prodrugs of tenofovir” (Merck Sharp & Dohme Corp., priority 2016, dated 2019):
Read-outs that look alike come from different tables or passages of the source.

Assays:
[1] = test system: HIV-1 (H9/IIIB strain); assay: Multiple round HIV-1 infection assay (Viking assay) in MT4-GFP cells; assay type: cell-based; details: Table 1, MT4-GFP cells infected with HIV-1 H9/IIIB
Experimental: Assessing Antiviral Potency in a Multiple Round HIV-1 Infection Assay (Viking Assay)
The antiviral activity of the tenofovir prodrugs of the Examples herein was assessed in an assay that measures the rate of replication of HIV in cell culture, termed the Viking assay (Viral KINetics in Green cells) and performed as follows. HIV-1 replication was monitored using MT4-gag-GFP clone D3 (hereafter designated MT4-GFP), which are MT-4 cells modified to harbor a GFP reporter gene, the expression of which is dependent on the HIV-1 expressed proteins tat and rev. Productive infection of an MT4-GFP cell with HIV-1 results in GFP expression approximately 24 h post-infection. MT4-GFP cells were maintained at 37° C./5% CO2/90% relative humidity in RPMI 1640 supplemented with 10% fetal bovine serum, 100 U/ml penicillin/streptomycin, and 400 μg/ml G418 to maintain the reporter gene. For infections, MT4-GFP cells were placed in the same medium lacking G418 and infected overnight with HIV-1 (H9/IIIB strain) virus at an approximate multiplicity of infection of 0.01 in the same incubation conditions. Cells were then washed and re-suspended in either RPMI 1640 supplemented with 10% or 50% normal human serum (NHS) at 1.6×10^5 cells/mL (10% NHS or 50% NHS, respectively). Compound plates were prepared by dispensing compounds dissolved in DMSO into wells of 384 well poly-D-lysine-coated plates (0.2 μl/well) using an ECHO acoustic dispenser. Each compound was tested in a 10-point serial 3-fold dilution (typical final concentrations: 8.4 μM-0.42 nM). Controls included no inhibitor (DMSO only) and a combination of three antiviral agents (efavirenz, indinavir, an in-house integrase strand transfer inhibitor at final concentrations of 4 μM each). Cells were added (50 μL/well) to compound plates and the infected cells were maintained at 37° C./5% CO2/90% relative humidity.
Infected cells were quantified at two time points, ˜48 h and ˜72 h post-infection, by counting the number of green cells in each well using an Acumen eX3 scanner. The increase in the number of green cells over ˜24 h period gives the reproductive ratio, R0, which is typically 5-15 and has been shown experimentally to be in logarithmic phase (data not shown). Inhibition of R0 is calculated for each well, and IC50s determined by non-linear 4-parameter curve fitting.

[2] = Prodrug stability assay in bio-relevant media (FaSSIF with pancreatin), GI tract stability; assay type: in vitro ADME; details: Table 1; % parent: HPLC peak area of prodrug at 5 h / 0 h, 0.5 mg/mL pancreatin in FaSSIF, 37° C.
Experimental: Prodrug Stability Assay in Bio-Relevant Media
The following assay was employed to evaluate the stability of the prodrugs in simulated gastrointestinal tract conditions. Preparation of fasted state simulated intestinal fluid (FaSSIF) using Phares SIF Powder was carried out according to protocols from Phare Drug Delivery AG (Baselland, Switzerland). For sample preparation, 10 μL stock solutions (10 mM) of prodrug substance in DMSO was added to 990 μL of 0.5 mg/mL Pancreatin solution (Fisher CAS #8049-47-6) in FaSSIF. Two samples were prepared for each compound. If the sample was a clear solution, it was directly analyzed by HPLC. If the sample was not clear, the sample was […], maintained at 37° C. and observed 5 h later. If the sample was clear, HPLC analysis was directly performed. If the sample was still not clear, the sample was diluted with 100% ACN and assayed by HPLC. All the samples were vortexed for 3 min and observed before injection. For the diluted samples, the area is multiplied by a dilution factor when the data is analyzed. The analysis was carried out with an Agilent 1100 series HPLC with autosampler. The column was a Poroshell 120 EC-C18, 4.6×50 mm, 2.7 μm. The flow rate was 1.8 mL/min, and the injection volume was 5 or 10 μL. UV detection was in the range 210-400 nm. The mobile phase consisted of solvent A (water plus 10 mM tetrabutylammonium bromide) and solvent B (acetonitrile) with a gradient of: 90% solvent A at 0 min, changing to 95% solvent B over 6 min, maintaining for 1.5 min, then reverting to 90% solvent A over 1.6 min. The HPLC peak area of the prodrug at 5 h was divided by the HPLC peak area of the prodrug at 0 h, to generate the % claimed parent ratio, which is summarized in Table 1 for gastrointestinal (GI) Tract stability.

[3] = 10% normal human serum, read-out: Viking, IC50 (10% NHS)
[4] = 50% normal human serum, read-out: Viking, IC50 (50% NHS)
[5] = read-out: Viking, IC50 (10% NHS), 10% normal human serum
[6] = read-out: Viking, IC50 (50% NHS), 50% normal human serum

SMILES: CC(C)OC(=O)C[C@H](C)OP(=O)(CO[C@H](C)Cn1cnc2c(N)ncnc21)NC(C)(C)C(=O)OC(C)C (single isomer, unassigned) [Example 10A]
- IC50 [1, 3]: 0.0114 µM
- IC50 [1, 4]: 0.0717 µM
- GI Tract stability [2]: 99.75%

SMILES: CCCOC(=O)C(C)(C)NP(=O)(CO[C@H](C)Cn1cnc2c(N)ncnc21)OCCc1cccc(C(=O)OC(C)C)c1 (single isomer, unassigned) [Example 11A]
- IC50 [1, 3]: 0.00218 µM
- IC50 [1, 4]: 0.00639 µM
- GI Tract stability [2]: 88.58%

SMILES: CCCOC(=O)C(C)(C)NP(=O)(CO[C@H](C)Cn1cnc2c(N)ncnc21)SCCC(=O)OC(C)C (single isomer, unassigned) [Example 12A]
- IC50 [1, 5]: 0.0754 µM
- IC50 [1, 6]: 0.322 µM
- GI Tract stability [2]: 96.69%

SMILES: CCCOC(=O)C(C)(C)NP(=O)(CO[C@H](C)Cn1cnc2c(N)ncnc21)SCCC(=O)OC(C)C (single isomer, unassigned) [Example 12B]
- IC50 [1, 5]: 0.013 µM
- IC50 [1, 6]: 0.0386 µM
- GI Tract stability [2]: 54.83%

SMILES: CCCSC(=O)C(C)(C)NP(=O)(CO[C@H](C)Cn1cnc2c(N)ncnc21)OCCC(=O)OC(C)C (single isomer, unassigned) [Example 13A]
- IC50 [1, 3]: 0.00508 µM
- IC50 [1, 4]: 0.0219 µM
- GI Tract stability [2]: 76.99%

SMILES: CCCOC(=O)C(C)(C)NP(=O)(CO[C@H](C)Cn1cnc2c(N)ncnc21)OCc1cccc(C(=O)OC(C)C)c1 (single isomer, unassigned) [Example 14A]
- IC50 [1, 3]: 0.00171 µM
- IC50 [1, 4]: 0.00758 µM
- GI Tract stability [2]: 96.71%
